From patent US20110098295A1, “METHODS OF TREATING ANXIETY, ITCHING AND PSYCHIATRIC DISORDERS” (priority 2009, published 2011) come the findings set out here.

SMILES strings stand for the structures.

In test [1] the test system is adenylyl cyclase subtype 8. Briefly: Biochemical screening test for AC8 inhibitors (cAMP assay in HEK293 cells expressing ACs). The format is cell-based. Conditions: 100 μM. The method, then: (§1) For AC8 expression vector pcDNA3-AC1 transfection, HEK293 cells were plated onto 60-mm-diameter dishes at a density of 1×10^6 per plate, grown overnight and transfected with pcDNA3-AC1 (0.8 μg DNA per plate) by Lipofectamine 2000 (Invitrogen). Stable transfected clones were selected in culture media containing 0.8 mg/ml G418 (Invitrogen, CA) and maintained in this media. For transient expression of other AC isoforms in HEK293 cells, HEK293 cells were plated in 96 well tissue culture dishes and transfected with plasmids for AC5, respectively, experiments were carried out at 48 h after transfection.
(§2) The HEK293 cells expressing ACs were harvested and lysed in 0.1 M HCl after different treatments. Direct cAMP measurements were performed using the direct cAMP enzyme immunoassay kit (Assay Designs, MI) and optical density values were measured at 405 nm by the microplate reader. Phosphodiesterase was inhibited by the addition of 1 mM 3-isobutyl-1 methylxanthine (Sigma, Mo.) to cultures.
The HEK293 cells were subcultured into 96-well plates in the absence of antibiotics and grown overnight and transfected with the pGL3-CRE-firefly luciferase and pGL3-CMV-Renilla luciferase constructs (0.25 μg DNA per well) by Lipofectamine 2000 reagent. The transfected cells were incubated overnight, and media were changed to DMEM containing 10% fetal bovine serum. After 48 h, the cells were treated with 10 μM forskolin, 10 μM A23187 and 2 mM CaCl2, or a combination of 10 μM forskolin, 10 μM A23187 and 2 mM CaCl2, in the absence or presence of each chemical tested at the concentration of 100 μM. At the end of 6 hours, incubation cells were harvested and luciferase activity was assayed by Dual-Luciferase Reporter Assay System (Promega). Relative light units were measured using a SIRIUS luminometer.
A set of biochemical screening tests were carried out to search for potential selective AC8 inhibitors. cAMP assay, gene-activation (pCREB) assay in AC8 expressed cell lines, as well as integrative physiological experiments were employed to screen for potential AC8 inhibitors. The effect of Compound A and B on AC8 was determined.

The target in test [2] is T1, adenylyl cyclase subtype 5 (Homo sapiens, UniProt O95622).
T1 construct: expressed in transfected cells; host or cells: HEK293 (transient, 48 h)
T1 sequence (O95622 whole entry): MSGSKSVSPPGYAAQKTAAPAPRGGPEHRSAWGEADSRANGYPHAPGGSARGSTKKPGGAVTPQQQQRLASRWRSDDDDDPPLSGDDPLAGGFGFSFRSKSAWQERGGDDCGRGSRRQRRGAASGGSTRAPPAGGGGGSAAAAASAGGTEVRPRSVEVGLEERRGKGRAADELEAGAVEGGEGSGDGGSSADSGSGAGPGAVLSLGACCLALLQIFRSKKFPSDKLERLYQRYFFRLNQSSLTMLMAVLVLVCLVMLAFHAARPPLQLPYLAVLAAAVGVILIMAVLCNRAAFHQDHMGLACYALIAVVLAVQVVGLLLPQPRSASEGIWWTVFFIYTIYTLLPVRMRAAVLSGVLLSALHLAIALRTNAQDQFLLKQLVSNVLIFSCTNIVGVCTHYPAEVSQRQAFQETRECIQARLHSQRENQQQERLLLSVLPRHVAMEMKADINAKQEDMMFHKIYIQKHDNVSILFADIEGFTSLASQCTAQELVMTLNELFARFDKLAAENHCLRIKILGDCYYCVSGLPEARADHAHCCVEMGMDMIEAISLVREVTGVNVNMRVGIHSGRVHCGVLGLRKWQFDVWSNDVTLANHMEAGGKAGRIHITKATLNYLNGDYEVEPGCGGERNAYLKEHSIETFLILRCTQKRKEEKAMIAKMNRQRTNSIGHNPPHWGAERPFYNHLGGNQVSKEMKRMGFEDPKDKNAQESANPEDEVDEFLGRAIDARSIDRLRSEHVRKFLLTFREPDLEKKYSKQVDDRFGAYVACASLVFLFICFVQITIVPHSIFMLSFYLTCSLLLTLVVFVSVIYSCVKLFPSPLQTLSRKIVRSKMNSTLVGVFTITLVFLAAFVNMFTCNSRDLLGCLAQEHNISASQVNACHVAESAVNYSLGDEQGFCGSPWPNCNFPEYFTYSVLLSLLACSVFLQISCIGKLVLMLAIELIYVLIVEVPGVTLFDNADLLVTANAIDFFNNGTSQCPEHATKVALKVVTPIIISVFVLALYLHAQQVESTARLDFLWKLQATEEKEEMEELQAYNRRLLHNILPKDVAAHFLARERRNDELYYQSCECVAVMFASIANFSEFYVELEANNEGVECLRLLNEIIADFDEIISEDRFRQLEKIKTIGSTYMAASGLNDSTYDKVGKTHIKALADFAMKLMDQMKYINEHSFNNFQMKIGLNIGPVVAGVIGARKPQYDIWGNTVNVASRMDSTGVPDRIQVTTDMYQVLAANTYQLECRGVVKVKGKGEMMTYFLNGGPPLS
Briefly: Biochemical screening test, AC5 transiently expressed in HEK293 cells. Format: cell-based. Conditions: read-out: Percent Inhibition AC5. The procedure: as §1, §2
The HEK293 cells were subcultured into 96-well plates in the absence of antibiotics and grown overnight and transfected with the pGL3-CRE-firefly luciferase and pGL3-CMV-Renilla luciferase constructs (0.25 μg DNA per well) by Lipofectamine 2000 reagent. […] Relative light units were measured using a SIRIUS luminometer.

Another test relates to wild-type mice. Briefly: Open field test, animal model of behavioral anxiety. The format is in vivo. More on the design: anti-anxiety effects in the open field test: dose or concentration left out as unconfirmed. An excerpt: Animals were placed in the open field immediately after an IP injection. […] B) Mice injected with AC8 inhibitor (filled circles) traveled more than control mice injected with saline (open circles). *P<0.05
A round, green, plastic tub with diameter 43.5 cm was used to create an open arena for the mouse to travel. The floor was made of clear Plexiglas. Each trial consisted of exposing the mouse to a bright light (685 lux) in the arena for the first minute, followed immediately by exposing the mouse only to dim light (1 lux) for another minute. The mouse's movements were captured using video camera tracking software (Ethovision, Noldus Va.) and the distance from the border of the arena, the distance from the centre of the arena, and the total distance traveled were measured. The percent difference in these factors between bright and dim light periods were also calculated. After each 2 min testing session, the mouse was removed and placed back in its home cage and the arena was cleaned with 70% ethanol solution.

The subject of a further test is mice. Briefly: Behavioral itching test (scratching induced by intradermal compound 48/80). Format: in vivo. The text has this: Data are presented as mean±SEM.
Mutant KO mice and littermate wild-type mice were used in the behaviour experiments. Mice were shaved at the back of the neck where intradermal injections of compound 48/80, which releases histamine from the mast cells, were then given.

As to `c1nc(N2CCOCC2)c2nc[nH]c2n1` [Compound B, 4-(9H-purin-6-yl)morpholine], in test [1], the “Percent Inhibition AC8” value was found to be 86 ± 2% and the “inhibition of AC8 activity” value is “significant inhibition”.
For the molecule `Cc1ccc(OCCn2c(S)nc3c(N)ncnc32)cc1` [Compound A, 6-amino-9-(2-p-tolyloxy-ethyl)-9H-purine-8-thiol], in test [1], the “Percent Inhibition AC8” value is 88 ± 2% inhibition and the “inhibition of AC8 activity” value is on record as “significant inhibition”. The inhibition at 100 µM in test [2] was 25 ± 4%. Further, the “ambulatory counts in open field” value in the test on wild-type mice (5 mg/kg, i.p., placed in open field immediately after injection, vs saline, n=6, P<0.05) is on record as “significantly more ambulatory counts”. In the test on wild-type mice (5 mg/kg, i.p., vs saline, P<0.05), the “distance traveled in open field” value is reported as “traveled more”. In addition, the “anti-anxiety effects in the open field test” value with wild-type mice (systemic injection, n=7 mice) is reported as “significant anti-anxiety effects”. Further, the “total scratching responses induced by intradermal compound 48/80 (100 μg/50 μl)” value with mice (5 mg/kg i.p., n=6 mice vs wild-type mice n=7, P<0.05) is recorded as “significantly reduced”. Besides, the “anti-itching effects in the itching test” value in the test on mice (systemic injection 5 mg/kg) is “significant anti-itching effects”.
